In the NIST ThermoML archive (doi:10.1016/j.jct.2011.10.027):
± gives the expanded uncertainty stated by the source.

Tests used:
[1] = refractive index (Na D-line) (dimensionless); conditions: 293.15 K; 101.33 kPa; Liquid; Standard Abbe refractometry
[2] = 101.33 kPa, Liquid, Vibrating tube method

## CCCCN(CCCC)CCCC [tributylamine]
[1]
  refractive index: 1.4259 ± 0.0005
[2]; 293.15 K
  mass density: 776.91 ± 0.24 kg/m3
[2]; 298.15 K
  mass density: 773.18 ± 0.24 kg/m3
[2]; 303.15 K
  mass density: 769.45 ± 0.24 kg/m3
[2]; 313.15 K
  mass density: 761.97 ± 0.24 kg/m3
[2]; 323.15 K
  mass density: 754.45 ± 0.24 kg/m3
[2]; 333.15 K
  mass density: 746.88 ± 0.24 kg/m3

## CCc1ccccc1 [ethylbenzene]
[1]
  refractive index: 1.4922 ± 0.0005
[2]; 293.15 K
  mass density: 866.99 ± 0.24 kg/m3
[2]; 298.15 K
  mass density: 862.59 ± 0.24 kg/m3
[2]; 303.15 K
  mass density: 858.18 ± 0.24 kg/m3
[2]; 313.15 K
  mass density: 849.33 ± 0.24 kg/m3
[2]; 323.15 K
  mass density: 840.42 ± 0.24 kg/m3
[2]; 333.15 K
  mass density: 831.42 ± 0.24 kg/m3

## Cc1ccccc1 [toluene]
[1]
  refractive index: 1.493 ± 0.0005
[2]; 293.15 K
  mass density: 866.89 ± 0.13 kg/m3
[2]; 298.15 K
  mass density: 862.24 ± 0.13 kg/m3
[2]; 303.15 K
  mass density: 857.58 ± 0.13 kg/m3
[2]; 313.15 K
  mass density: 848.2 ± 0.13 kg/m3
[2]; 323.15 K
  mass density: 838.76 ± 0.13 kg/m3
[2]; 333.15 K
  mass density: 829.22 ± 0.14 kg/m3

## O=[N+]([O-])c1ccccc1 [nitrobenzene]
[1]
  refractive index: 1.549 ± 0.0005
[2]; 293.15 K
  mass density: 1203.13 ± 0.4 kg/m3
[2]; 298.15 K
  mass density: 1198.17 ± 0.39 kg/m3
[2]; 303.15 K
  mass density: 1193.21 ± 0.39 kg/m3
[2]; 313.15 K
  mass density: 1183.3 ± 0.38 kg/m3
[2]; 323.15 K
  mass density: 1173.38 ± 0.37 kg/m3
[2]; 333.15 K
  mass density: 1163.45 ± 0.36 kg/m3

## Cc1cccc(C)c1 [1,3-dimethylbenzene]
[1]
  refractive index: 1.4936 ± 0.0005
[2]; 293.15 K
  mass density: 864.18 ± 0.24 kg/m3
[2]; 298.15 K
  mass density: 859.88 ± 0.24 kg/m3
[2]; 303.15 K
  mass density: 855.56 ± 0.24 kg/m3
[2]; 313.15 K
  mass density: 846.85 ± 0.24 kg/m3
[2]; 323.15 K
  mass density: 837.92 ± 0.24 kg/m3
[2]; 333.15 K
  mass density: 829.01 ± 0.24 kg/m3

## Cc1ccccc1C [1,2-dimethylbenzene]
[1]
  refractive index: 1.5015 ± 0.0005
[2]; 293.15 K
  mass density: 879.79 ± 0.23 kg/m3
[2]; 298.15 K
  mass density: 875.58 ± 0.23 kg/m3
[2]; 303.15 K
  mass density: 871.37 ± 0.24 kg/m3
[2]; 313.15 K
  mass density: 862.78 ± 0.24 kg/m3
[2]; 323.15 K
  mass density: 854.02 ± 0.24 kg/m3
[2]; 333.15 K
  mass density: 845.2 ± 0.24 kg/m3

## Cc1ccc(C)cc1 [1,4-dimethylbenzene]
[1]
  refractive index: 1.4922 ± 0.0005
[2]; 293.15 K
  mass density: 861.02 ± 0.24 kg/m3
[2]; 298.15 K
  mass density: 856.68 ± 0.24 kg/m3
[2]; 303.15 K
  mass density: 852.33 ± 0.24 kg/m3
[2]; 313.15 K
  mass density: 843.59 ± 0.24 kg/m3
[2]; 323.15 K
  mass density: 834.81 ± 0.24 kg/m3
[2]; 333.15 K
  mass density: 825.96 ± 0.24 kg/m3
